From patent US12552825B2 (Zikani Therapeutics, Inc., priority 2019, dated 2026)
In brackets after ≈: the same amount, converted by molar mass.

Legend:
Assay type in all cases: cell-based
S. aureus MP-12 = assay: microbe, parasite or virus in culture; conditions: Staphylococcus aureus, MP12, read-out: MIC S. aureus MP-12
P. aeruginosa MP-3 = assay: MIC determination by CLSI broth dilution, P. aeruginosa MP-3; conditions: Pseudomonas aeruginosa, MP3, strain MP-3
K. pneumoniae MP-546 = assay: MIC determination by CLSI broth dilution, K. pneumoniae MP-546; conditions: Klebsiella pneumoniae, MP546, CLSI broth dilution; strain MP-546
A. baumannii MP-15 = assay: MIC determination by CLSI broth dilution, A. baumannii MP-15; conditions: Acinetobacter baumannii, MP15, strain MP-15, read-out: MIC A. baumanii MP-15
E. coli MP-4 = assay: MIC determination by CLSI broth dilution, E. coli MP-4; conditions: Escherichia coli, MP4, CLSI broth dilution; strain MP-4
K. pneumoniae MP-648 = assay: MIC determination by CLSI broth dilution, K. pneumoniae MP-648; conditions: Klebsiella pneumoniae, MP648, CLSI broth dilution; strain MP-648

Structure (SMILES) | MIC (S. aureus MP-12) [µg/mL] | MIC (P. aeruginosa MP-3) [µg/mL] | MIC (K. pneumoniae MP-546) [µg/mL] | MIC (A. baumannii MP-15) [µg/mL] | MIC (E. coli MP-4) [µg/mL] | MIC (K. pneumoniae MP-648) [µg/mL]
CCCN1C[C@H](C)C[C@@](C)(OC)[C@H](O[C@@H]2O[C@H](C)C[C@H](N(C)C)[C@H]2O)[C@@H](C)C(=O)C(C)(C)C(=O)OC[C@H]1CC1CCN(C)CC1 [Compound 95, (3R,6R,8R,9R,10R)-9-(((2S,3R,4S,6R)-4-(dimethylamino)-3-hydroxy-6-methyltetrahydro-2H-pyran-2-yl)oxy)-8-methoxy-6,8,10,12,12-pentamethyl-3-((1-methylpiperidin-4-yl)methyl)-4-propyl-1-oxa-4-azacyclotridecane-11,13-dione] | 4 to 32 (≈ 6.25 to 50 µM) | > 32 | < 4 | 4 to 32 (≈ 6.25 to 50 µM) | < 4 | < 4
CCCN1CCC(C[C@@H]2COC(=O)C(C)(C)C(=O)[C@H](C)[C@@H](O[C@@H]3O[C@H](C)C[C@H](N(C)C)[C@H]3O)[C@](C)(OC)C[C@@H](C)CN2CCC)CC1 [Compound 96, (3R,6R,8R,9R,10R)-9-(((2S,3R,4S,6R)-4-(dimethylamino)-3-hydroxy-6-methyltetrahydro-2H-pyran-2-yl)oxy)-8-methoxy-6,8,10,12,12-pentamethyl-4-propyl-3-((1-propylpiperidin-4-yl)methyl)-1-oxa-4-azacyclotridecane-11,13-dione] | 4 to 32 (≈ 5.99 to 47.9 µM) | > 32 | < 4 | > 32 | < 4 | 4 to 32 (≈ 5.99 to 47.9 µM)
CCN1C[C@H](C)C[C@@](C)(OC)[C@H](O[C@@H]2O[C@H](C)C[C@H](N(C)C)[C@H]2O)[C@@H](C)C(=O)C(C)(C)C(=O)OC[C@H]1CC1CCN(C)CC1 [Compound 98, (3R,6R,8R,9R,10R)-9-(((2S,3R,4S,6R)-4-(dimethylamino)-3-hydroxy-6-methyltetrahydro-2H-pyran-2-yl)oxy)-4-ethyl-8-methoxy-6,8,10,12,12-pentamethyl-3-((1-methylpiperidin-4-yl)methyl)-1-oxa-4-azacyclotridecane-11,13-dione] | 4 to 32 (≈ 6.39 to 51.1 µM) | > 32 | < 4 | > 32 | < 4 | < 4
CO[C@]1(C)C[C@@H](C)CN(C)[C@@H](CCCN(C)C2CCCC2)COC(=O)C(C)(C)C(=O)[C@H](C)[C@H]1O[C@@H]1O[C@H](C)C[C@H](N(C)C)[C@H]1O [Compound 99, (3S,6R,8R,9R,10R)-3-(3-(cyclopentyl(methyl)amino)propyl)-9-(((2S,3R,4S,6R)-4-(dimethylamino)-3-hydroxy-6-methyltetrahydro-2H-pyran-2-yl)oxy)-8-methoxy-4,6,8,10,12,12-hexamethyl-1-oxa-4-azacyclotridecane-11,13-dione] | 4 to 32 (≈ 6.25 to 50 µM) | > 32 | < 4 | > 32 | < 4 | < 4
CCCN1CCC(C[C@@H]2COC(=O)C(C)(C)C(=O)[C@H](C)[C@@H](O[C@@H]3O[C@H](C)C[C@H](N(C)C)[C@H]3O)[C@](C)(OC)C[C@@H](C)CN2CC)CC1 [Compound 102, (3R,6R,8R,9R,10R)-9-(((2S,3R,4S,6R)-4-(dimethylamino)-3-hydroxy-6-methyltetrahydro-2H-pyran-2-yl)oxy)-4-ethyl-8-methoxy-6,8,10,12,12-pentamethyl-3-((1-propylpiperidin-4-yl)methyl)-1-oxa-4-azacyclotridecane-11,13-dione] | 4 to 32 (≈ 6.12 to 48.9 µM) | > 32 | < 4 | 4 to 32 (≈ 6.12 to 48.9 µM) | < 4 | < 4
CO[C@]1(C)C[C@@H](C)CN(C)[C@@H](CCCN2CCC(F)CC2)COC(=O)C(C)(C)C(=O)[C@H](C)[C@H]1O[C@@H]1O[C@H](C)C[C@H](N(C)C)[C@H]1O [Compound 103, (3S,6R,8R,9R,10R)-9-(((2S,3R,4S,6R)-4-(dimethylamino)-3-hydroxy-6-methyltetrahydro-2H-pyran-2-yl)oxy)-3-(3-(4-fluoropiperidin-1-yl)propyl)-8-methoxy-4,6,8,10,12,12-hexamethyl-1-oxa-4-azacyclotridecane-11,13-dione] | 4 to 32 (≈ 6.21 to 49.7 µM) | > 32 | < 4 | > 32 | < 4 | < 4
CO[C@]1(C)C[C@@H](C)CN(C)[C@@H](CCCN2CCOCC2)COC(=O)C(C)(C)C(=O)[C@H](C)[C@H]1O[C@@H]1O[C@H](C)C[C@H](N(C)C)[C@H]1O [Compound 105, (3S,6R,8R,9R,10R)-9-(((2S,3R,4S,6R)-4-(dimethylamino)-3-hydroxy-6-methyltetrahydro-2H-pyran-2-yl)oxy)-8-methoxy-4,6,8,10,12,12-hexamethyl-3-(3-morpholinopropyl)-1-oxa-4-azacyclotridecane-11,13-dione] | 4 to 32 (≈ 6.37 to 51 µM) | > 32 | 4 to 32 (≈ 6.37 to 51 µM) | > 32 | < 4 | 4 to 32 (≈ 6.37 to 51 µM)
